Test results: US20110086818A1, “METHODS, COMPOSITIONS, AND KITS FOR TREATING PAIN AND PRURITUS” (priority 2008, published 2011)

How the values were obtained:
[1] = system: voltage-dependent sodium channels; test: whole-cell voltage clamp recordings of sodium current in small (capsaicin-sensitive) DRG neurons; type: cell-based, rat; settings: for inhibition (decrease) of sodium current: small capsaicin-sensitive DRG neurons, 5 mM QX-314 (5-minute application), 1 μM capsaicin (1-10 minutes), alone or together, steps from −70 mV, n=25
Method: We recorded current through voltage-dependent sodium channels using whole-cell voltage clamp recordings from adult rat DRG neurons. To select for nociceptors, we recorded from small (24±5 μm; n=25) neurons and tested the neurons for the expression of TRPV1 receptors by a short (1-sec) application of 1 μM capsaicin. In 25/25 of small neurons tested, capsaicin produced a prolonged (10±3 sec) inward current (FIG. 1A, upper panel), consistent with the neurons being nociceptors. Sodium currents were elicited by depolarizing steps from a holding potential of −70 mV.
(§1) Dorsal root ganglia from 6-8 week old Sprague-Dawley rats were removed and placed into Dulbecco's Minimum Essential Medium containing 1% penicillin-streptomycin (Sigma), then treated for 90 minutes with 5 mg/ml collagenase, 1 mg/ml Dispase II (Roche, Indianapolis, Ind.) and for 7 minutes with 0.25% trypsin, followed by addition of 2.5% trypsin inhibitor. Cells were triturated in the presence of DNAase I […] (50 U), centrifuged through 15% BSA (Sigma), resuspended in 1 ml Neurobasal medium (Sigma), 10 μM AraC, NGF (50 ng/ml) and GDNF (2 ng/ml) and plated onto poly-lysine (500 μg/ml) and laminin ([…]) coated 35 mm tissue culture dishes (Becton Dickinson) at 8000-9000 per well. Cultures were incubated at 37° C., 5% carbon dioxide. Recordings were made within 48 hours after plating. Average size of small neurons chosen as likely nociceptors was 23±6 μm (n=50) and that of large neurons was 48±8 μM (n=10).
Whole-cell voltage-clamp or current-clamp recordings were made using an Axopatch 200 A amplifier (Axon Instruments, Union City, Calif.) and patch pipettes with resistances of 1-2 MΩ. For voltage-clamp recordings pipette capacitance was reduced by wrapping the shank by Parafilm or coating the shank with Sylgard (Dow Corning, Midland, Mich.). Cell capacitance was compensated for using the amplifier circuitry, and linear leakage currents subtracted using a P/4 procedure. Series resistance (usually 3-7 MO and always less than 10 MΩ) was compensated by ˜80%. Voltage clamp recordings used solutions designed to isolate sodium currents by blocking potassium and calcium currents and with reduced external sodium to improve voltage clamp. Pipette solution was 110 mM CsCl, 1 mM CaCl2, 2 mM MgCl2, 11 mM EGTA, and 10 mM HEPES, pH adjusted to 7.4 with ˜25 mM CsOH. External solution was 60 mM NaCl, 60 mM choline chloride, 4 mM KCl, 2 mM CaCl2, 1 mM MgCl2, 0.1 mM CdCl2, 15 mM tetraethylammonium chloride, 5 mM 4-aminopyridine, 10 mM glucose, and 10 mM HEPES, pH adjusted to 7.4 with NaOH. No correction was made for the small liquid junction potential (−2.2 mV).
Command protocols were generated and data digitized using a Digidata 1200 A/D interface with pCLAMP 8.2 software (Axon Instruments, Union City, Calif.). […]

small DRG neurons = test: current clamp recording of action potentials in small nociceptive-like DRG neurons; type: cell-based, rat; settings: QX-314 5 mM, capsaicin 1 μM
[2] = system: voltage-dependent sodium channels; test: whole-cell voltage clamp recordings of sodium current in large (capsaicin-insensitive) DRG neurons; type: cell-based, rat; settings: large DRG neurons (>40 μm); 10-minute application; n=10
From the text: To test whether the ability of co-applied capsaicin and QX-314 to inhibit sodium current is selective for cells that express TRPV1 receptors, we also recorded from large DRG neurons (soma diameter >40 μm) (FIG. 1A, right). […] As for small diameter neurons, QX-314 applied alone had little or no effect on sodium current (current increased by 8±4% after a 10-minute application, n=10). Unlike small diameter neurons, capsaicin had no effect on sodium current in large diameter neurons (average increase by 3±2% after a 10-minute application, n=10).
as §1, with “Average size of small neurons chosen as likely nociceptors was 23±6 μm (n=50) and that of large neurons was 48±8 μM (n=10).” left out

rats [3] = test: sciatic nerve injection, motor function score and placing reflex
Method: (§2) Motor effects were scored according to a scale of 0 (no effect; normal gait and limb placement), 1 (limb movement but with abnormal limb placement and movement) or 2 (complete loss of limb movement). […] For co-application of QX-314 and capsaicin into the para-sciatic nerve region, we injected QX-314 first, followed 10 minutes later by capsaicin, with the idea that QX-314 would be present extracellularly and ready to enter TRPV1 channels as soon as they were activated.
(§3) For sciatic nerve injections, animals were first habituated to handling for 10 days. Lidocaine (0.2% or 2%, 100 μL); QX-314 (0.2%, 100 μL) alone; capsaicin (50 μg in 100 μL) alone, or QX-314 followed by capsaicin (10 minutes interval) were injected into the area of sciatic nerve below the hip joint. Mechanical and thermal thresholds were determined using von Frey filaments and radiant heat. […] Walking, climbing, walking on the rod and placing reflex were examined. […] All experiments were done with the experimenter blinded.

adult rats [4] = test: intraplantar injection, mechanical threshold for paw withdrawal (von Frey hairs); type: in vivo, rat; settings: QX-314 10 μL of 2%, capsaicin 10 μg/10 μL, capsaicin effect at 15 and 30 minutes
Method: (§4) FIG. 3. Intraplantar injection of capsaicin (10 μg/10 μL) together with QX-314 (2%, 10 μL) leads to a prolonged local anesthesia to mechanical (von Frey filaments) and thermal noxious stimuli. […] (*=p<0.05, n=6 for each group). […] Arrow indicates cutoff, and numbers of animals not responding to strongest stimulus is indicated for time points with largest effects. (*=p<0.05, n=6 for each group).
We next examined if the combination of capsaicin and QX-314 can reduce pain behavior in vivo. […] In three animals the paw was insensitive to even the highest value von Frey filament (57 g). The elevated mechanical threshold lasted for about three hours and then gradually returned back to basal levels by four hours (FIG. 3A).
(§5) For intraplantar injections, rats were first habituated to handling and tests performed with the experimenter blind to the treatment. Intraplantar injections of vehicle (20% ethanol, 5% Tween 20 in saline, 10 μL) capsaicin (1 μg/μL), QX-314 (2%) or mixture of capsaicin and QX-314 into the left hindpaw were made and mechanical and thermal sensitivities determined using von Frey hairs and radiant heat respectively.

adult rats [5] = test: intraplantar injection, thermal (radiant heat) response latency; type: in vivo, rat; settings: QX-314 at 30 min, capsaicin at 15 and 30 min, combination 2 hours after injection, heat applied for 25 seconds
Method: as §4
Similar effects were seen examining sensitivity to a standardized noxious radiant heat stimulus. […] This effect remained for 4 hours after the injection (FIG. 3B).
as §5

rats [6] = test: sciatic nerve injection, mechanical threshold (von Frey filaments); type: in vivo, rat; settings: QX-314 0.2%, 100 μL, capsaicin 0.5 μg/μL, for 30 min after injection
Method: as §2, §3

rats [7] = test: sciatic nerve injection, thermal (radiant heat) response latency; type: in vivo, rat; settings: QX-314 0.2%, 100 μL, capsaicin 0.5 μg/μL, for 30 min after injection
Method: as §2, §3

adult rats [8] = test: intraplantar injection, spontaneous flinching; type: in vivo, rat; settings: first 5 minutes after intraplantar injection; capsaicin 10 μg/10 μL, QX-314 2%
[9] = hindpaw injection, acute pain-related response (flinches) and analgesia (FIG. 8); type: in vivo; settings: injection into the hindpaw, flinches (FIG. 8)
TRPV1 receptors = molecular target: T1, TRPV1 receptors (Rattus norvegicus, UniProt O35433); test: capsaicin-evoked inward current in DRG neurons (test for expression of TRPV1 receptors); type: cell-based
T1 construct: Dorsal root ganglia from 6-8 week old Sprague-Dawley rats were removed; endogenous in cells; host or cells: primary cultured dorsal root ganglion neurons from 6-8 week old Sprague-Dawley rats
T1 sequence (O35433 whole entry): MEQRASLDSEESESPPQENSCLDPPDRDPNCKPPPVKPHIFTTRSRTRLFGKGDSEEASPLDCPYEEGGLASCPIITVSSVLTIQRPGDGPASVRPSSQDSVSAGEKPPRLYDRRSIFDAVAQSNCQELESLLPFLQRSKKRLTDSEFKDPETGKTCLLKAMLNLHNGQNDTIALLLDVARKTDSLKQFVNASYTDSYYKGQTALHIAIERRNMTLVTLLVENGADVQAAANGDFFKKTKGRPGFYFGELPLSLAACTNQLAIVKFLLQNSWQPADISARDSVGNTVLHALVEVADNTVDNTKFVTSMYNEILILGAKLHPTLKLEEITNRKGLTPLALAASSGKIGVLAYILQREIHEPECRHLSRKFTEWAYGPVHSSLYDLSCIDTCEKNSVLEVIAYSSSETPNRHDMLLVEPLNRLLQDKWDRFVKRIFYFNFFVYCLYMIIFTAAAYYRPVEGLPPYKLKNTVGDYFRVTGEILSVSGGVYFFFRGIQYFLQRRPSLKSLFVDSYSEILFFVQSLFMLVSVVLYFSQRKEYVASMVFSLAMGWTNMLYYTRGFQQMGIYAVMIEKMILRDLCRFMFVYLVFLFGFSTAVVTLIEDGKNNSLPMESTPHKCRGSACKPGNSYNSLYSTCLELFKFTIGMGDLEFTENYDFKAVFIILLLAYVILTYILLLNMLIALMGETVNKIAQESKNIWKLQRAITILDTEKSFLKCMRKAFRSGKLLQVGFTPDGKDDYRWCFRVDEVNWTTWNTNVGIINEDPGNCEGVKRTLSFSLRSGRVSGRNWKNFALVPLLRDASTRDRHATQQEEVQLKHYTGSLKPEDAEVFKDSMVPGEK
Method: QX-314 (5 mM), capsaicin (1 μM or 500 nM), or their combination was applied using custom-designed multibarrel fast drug delivery system placed about 200-250 μm from the neuron. Solution exchange was complete in less than a second.

[10] = small neurons, 1-sec application of 1 μM capsaicin

Question: Which “inhibition of sodium current” value ([1]; small dorsal root ganglion neurons, eugenol alone (FIG. 5)) does the source give for `C=CCc1ccc(O)c(OC)c1` [eugenol, 2-methoxy-4-(2-propenyl)phenol] here?
Answer: 10-20%

Question: With `CC[N+](CC)(CC)CC(=O)Nc1c(C)cccc1C` [QX-314] as the compound, how does the “effect of external application on sodium channels” value ([1]; external QX-314 alone) read?
Answer: no effect

Question: What about the “inhibition (decrease) of sodium current” value [1] of the same compound?
Answer: 3±0.5%

Question: And the “effect on action potential generation / amplitude” value (small DRG neurons)?
Answer: had no effect

Question: What about the “increase of sodium current” value [2] of the same compound?
Answer: 8±4%

Question: What about the “effect on motor function” value (rats [3]; rat, in vivo) of the same compound?
Answer: no effect on motor function

Question: What about the “effect on mechanical threshold for withdrawal response” value (adult rats [4]) of the same compound?
Answer: no significant effect

Question: And the “effect on thermal response latency (noxious radiant heat)” value (adult rats [5])?
Answer: transiently reduced the thermal response latency

Question: What about the “effect on mechanical threshold” value (rats [6]) of the same compound?
Answer: no significant effect

Question: And the “effect on thermal response latency” value (rats [7])?
Answer: no significant effect

Question: Which “inhibition (decrease) of sodium current” value [1] does the source give for `COc1cc(CNC(=O)CCCC/C=C/C(C)C)ccc1O` [capsaicin] here?
Answer: 31±9%

Question: What about the “effect on action potential generation / amplitude” value (small DRG neurons) of the same compound?
Answer: reduced the action potential amplitude

Question: What about the “increase of sodium current” value [2] of the same compound?
Answer: 3±2%

Question: What about the mean motor score (rats [3]; scale 0-2, sciatic injection, lidocaine 2% at 30 minutes, capsaicin 0.5 μg/μL, 100 μL, QX-314 0.2%, 100 μL followed 10 minutes later by capsaicin) of the same compound?
Answer: 0.7±0.2

Question: And the “effect on mechanical threshold for withdrawal response” value (adult rats [4])?
Answer: significantly reduced the mechanical threshold

Question: And the “flinches in 5 min” value (adult rats [8])?
Answer: 40±6 flinches

Question: What about the “duration of acute pain-related response following injection” value [9] of the same compound?
Answer: approximately 15 min

Question: And the “effect on thermal response latency (noxious radiant heat)” value (adult rats [5])?
Answer: reduced

Question: And the “effect on mechanical threshold” value (rats [6])?
Answer: reduced

Question: And the “inward current in large DRG neurons” value (TRPV1 receptors; large DRG neurons, soma diameter >40 μm, 10 of 10)?
Answer: did not elicit an inward current

Question: What about the “duration of prolonged inward current” value (TRPV1 receptors; [10]) of the same compound?
Answer: 10 ± 3 s

Question: What about the “small neurons tested in which an inward current was produced” value (TRPV1 receptors; [10]) of the same compound?
Answer: 25/25

Question: And the “effect on thermal response latency” value (rats [7])?
Answer: reduced

Question: Which “duration of complete loss of tactile stimulus-evoked placing reflex” value (rats [3]; rat, in vivo) does the source give for `CCN(CC)CC(=O)Nc1c(C)cccc1C` [lidocaine] here?
Answer: at least 30 minutes

Question: What about the “effect on motor function” value (rats [3]; rat, in vivo) of the same compound?
Answer: complete paralysis of the lower limb

Question: What about the “time to full recovery of sensory and motor deficits” value (rats [3]; rat, in vivo) of the same compound?
Answer: ≤ 45 min
